Where two headings read alike, the source gives them in different places.
What was measured:
Format in all cases: cell-based, human
[1] = test system: HepG2 cells; experiment: Cell growth under high-density conditions (SRB assay), delayed cell death (DCD); conditions: for Tox. (effective (toxic) concentration) in DCD: toxic compounds, rapid decrease in cell numbers; for Tox. (effective (toxic) concentration) in DCD / minimal effective concentration: high density HepG2 cultures; for minimal effective concentration: Homo sapiens
[2] = test system: Hep G2 cells; experiment: Nicotinamide Reversibility Assay / cell growth inhibition of Hep G2 cells (SRB, six days); conditions: for Reversal by Niacinamide: Hep G2 cell growth inhibition with added nicotinamide; for IC50: read-out: Cell growth inhibition IC50-values [μM] Hep G2
Protocol: Nicotinamide Reversibility Assay
Hep G2 cells derived from a human liver carcinoma were plated at a density of 20,000 cells/ml in 12-well plastic dishes. Cultivation occurred in Richters IMEM-ZO nutrient medium with 5% fetal calf serum (FCS) in a tissue culture incubator with a gas mixture of 5% CO2 and 95% air at a temperature of 37° C. One day after plating, the culture medium was aspirated from the cells and replaced by fresh medium which contained the respective concentrations of the test compounds and where applicable of the nicotinamide. For the individual concentrations and the controls without test compounds, three-fold batches were done for each. Three days after the beginning of treatment, the medium was again renewed with the test compounds and where applicable the nicotinamide. After six days of compound incubation, the test was ended and the protein amount in the individual wells was determined with the sulforhodamin-B-method (according. to P. Skehan et al.: New Colorimetric Cytotoxicity Assay for Anticancer-Drug Screening. J. Natl. Cancer Inst. 82: 1107-1112, 1990). The IC50-values were taken from the dose-response curves and given as a comparative measurement for the activity of the test compounds.

[3] = test system: NAD(P) synthesis from niacinamide in HepG2 cells; experiment: Determination of NAD(P) synthesis from [14C]niacinamide in HepG2 cells
From the text: The effect of the compounds on the synthesis of NAD(P) starting from niacinamide was investigated using for example the tumor cell line HepG2 according to the technique described in the experimental part below.
The inhibition of the NAD(P) synthesis from niacinamide by these compounds was investigated in HepG2 cells as described in the section “Material and Methods”. The compounds of Table 3 a were used at a concentration of 10^−5 M. The compounds of Table 3 b were used at concentrations of at least 10^−5 M, except for Doxorubicin where the concentration was 0.3×10^−5 M. As a control, vehicle treated or untreated cells were used.
In these experiments, a pre-incubation period of 17 hrs with the compounds was used, but it turned out that the pre-incubations period could be shortened, for example to 2 hrs, or skipped completely without affecting the inhibition profile. […] Similar results were obtained with the other specific compounds.
For the detection of specific inhibitors of niacinamide mononucleotide formation the following screening assay is especially useful which comprises the following steps: incubating cultured cells selected from HepG2 cells, U-87 MG cells, MCF-7 M1 cells, Caki-1 cells, HL-60 cells, PC3 cells, U-373 MG cells, A549 cells and KG-1a cells in the presence of [^14C]niacinamide and a compound to be tested for its activity to inhibit the cellular formation of niacinamide mononucleotide; effecting lysis of the cells; isolating and separating the [^14C]-labeled compounds and measuring the amount of formed labeled niacinamide mononucleotide, NAD and NADP. More concretely, cultured cells are seeded in a defined density in culture dishes, followed by incubation in the presence of a test compound and by the addition of [^14C]niacinamide for about 0.1 to 6 hrs. The cells are then lysed with perchloric acid and the resulting extract is neutralized. Finally, the [^14C]-labeled compounds are separated by thin-layer chromatography on cellulose matrices followed by UV detection and autoradiography. Non-radioactive niacinamide derivatives are used as standards. This assay allows simple and effective screening and selection of the compounds according to the invention.
Determination of NAD(P) Synthesis from [^14C]Niacinamide
The cells were detached from 75 cm^2 flasks by removing the growth medium and adding 3 ml trypsin/EDTA solution to each flask. After about 5 minutes incubation at 37° C., when the cells were detached from the surface of the dishes, trypsinization was stopped by adding 3 ml Richter's IMEM-ZO medium containing 10% FCS. The cells were suspended by repeated pipetting. For predilution, an aliquot of 20 μl was added to 10 ml Casyton isotonic solution (No. 043-90037P, Schärfe System, Reutlingen, Germany) using a Sysmex Auto Dilutor Type AD-260 (Toa, Medical Electronics Co. Ltd., Kobe, Japan). The cell number was determined by electronic cell volume measurements and counting with a CASY 1 Cell Counter+Analyzer System, Model TTC (Schärfe System, Reutlingen, Germany) equipped with a 60 μm capillary. Following dilution in IMEM-ZO containing 10% FCS, the cells were finally seeded at a density of 4×10^6/10 ml per sample in Ø 10 cm tissue culture dishes (Greiner, Frickenhausen, Germany) and incubated at 37° C. in a humidified atmosphere of 5% CO2 in air.
After one day, when the cells were adherent to the dishes, the cultures were replenished with IMEM-ZO containing 5% FCS plus the test compound or the vehicle. […] The cells were then incubated at 37° C. for 17 hours in a humidified atmosphere of 5% CO2 in air. This preincubation period is not necessary to achieve a distinct inhibitory action of the compounds and can be shortened for example to 2 or 0 hours. After this period of time, the medium was again discarded and 4 ml HEPES-buffered IMEM-ZO containing the test compound or the vehicle and 0.5 μCi/ml [^14C]niacinamide were added to each culture for an additional 5 hours at 37° C. and 100% humidity. […]

[4] = Table 3b, at least 10^-5 M, control 374.00
[5] = Table 3b, toxic compounds at at least 10^-5 M, control 531
[6] = Homo sapiens, HepG2, 144 h, Hep G2, six days of compound incubation, SRB
[7] = Homo sapiens, 10 μM, read-out: Cellular NAD synthesis inhibition [%]
[8] = minimum concentration which, despite initial growth, induced cell death below the number of initially seeded cells, Table 2
[9] = Homo sapiens, Table 3a, compound 10^-5 M, read-out: NAD(P) % of Control
[10] = Table 3a, compound 10^-5 M, 17 hrs pre-incubation, control 302.1
[11] = Table 3a, compound 10^-5 M, control 186.4

| SMILES | Tox. (effective (toxic) concentration) in DCD [1] | Reversal by Niacinamide [2] | NAD(P) % of Control ([3]; Table 3b, at least 10^-5 M) [%] | NAD(P) pmol/mg protein [3, 4] [pmol/mg protein] | NAD(P) pmol/10^6 cells [3, 5] [pmol/10^6 cells] | Influence of the addition of nicotinamide on the action on cell growth (FIGS. 20 to 27) ([2]; Hep G2) | IC50 [2, 6] [µM] | inhibition at 10 µM [3, 7] [%] | minimal effective concentration ([1]; Table 5) [µM] | minimal effective concentration [1, 8] [µM] | activity at 10 µM [3, 9] [%] | NAD(P) pmol/10^6 cells [3, 10] [pmol/10^6 cells] | NAD(P) pmol/mg protein [3, 11] [pmol/mg protein] | also measured |
| --- | --- | --- | --- | --- | --- | --- | --- | --- | --- | --- | --- | --- | --- | --- |
| NC(=O)c1ccc(N)nc1 [6-Aminonicotinamide, reference compound] | Tox. 10000 μM | yes | 88.0 | 329.34 | 466.98 | – | – | – | – | – | – | – | – | IC50 ([2]; Homo sapiens, HepG2, 144 h): 4 µM; inhibition at 30 µM ([3]; Homo sapiens, 30 μM, read-out: Cellular NAD synthesis inhibition [%]): 12% |
| [N-]=[N+]=CC(=O)CC[C@H](N)C(=O)O [6-Diazo-5-oxo-L-norleucine, reference compound] | Tox. 100 μM | no | 110.5 | 413.55 | 586.39 | no measurable influence | 3 | 0 | – | – | – | – | – | – |
| [N-]=[N+]=CC(=O)OC[C@H](N)C(=O)O [Azaserine, reference compound] | – | no | 100.0 | 374.23 | 530.64 | no measurable influence | 0.7 | 0 | – | – | – | – | – | – |
| O=C(NCCCCC1CCN(C(c2ccccc2)c2ccccc2)CC1)Nc1cccnc1 [Compound K22130, 1-[4-(1-benzhydryl-piperidine-4-yl)-butyl]-3-pyridine-3-yl-urea] | – | – | – | – | – | – | 0.08 | – | 1 | 1 | – | – | – | – |
| O=C(NCCCCCCNC(=O)N1CCN(C(c2ccccc2)c2ccccc2)CC1)NCc1cccnc1 [Compound K22132, 4-benzhydryl-piperazine-1-carboxylic acid-[6-(3-pyridine-3-yl-methylureido)-hexyl]-amide] | – | – | – | – | – | – | 0.02 | 99 | 0.03 | 0.1 | 1.4 | 4.1 | 2.5 | – |
| S=C(NCCCCCC1CCN(C(c2ccccc2)c2ccccc2)CC1)Nc1cccnc1 [Compound K22234, 1-[5-(1-benzhydryl-piperidine-4-yl)-pentyl]-3-pyridine-3-yl-thiourea] | – | – | – | – | – | – | 0.2 | 99 | 0.3 | 0.3 | 1.1 | 3.4 | 2.1 | – |
| O=C(CCCCCN1CCN(C(c2ccccc2)c2ccccc2)CC1)NCCc1cccnc1 [Compound K22265, 6-(4-benzhydryl-piperazine-1-yl)-hexanoic acid-(2-pyridine-3-yl-ethyl)-amide] | – | – | – | – | – | – | 2 | 98 | 3 | 3 | 2.4 | 7.3 | 4.5 | – |
| S=C(NCCCCC=C(c1ccccc1)c1ccccc1)N/N=C/c1cccnc1 [Compound K22299, 1-(6,6-diphenyl-5-hexenyl)-3-(pyridine-3-yl-methylene-amino)-thiourea] | – | – | – | – | – | – | 0.1 | 99 | 0.3 | 0.3 | 0.5 | 1.6 | 1.0 | – |
| O=C(NCCCCC1CCN(C(c2ccccc2)c2ccccc2)CC1)NCCc1cccnc1 [Compound K22339, 1-[4-(1-benzhydryl-piperidine-4-yl)-butyl]-3-(2-pyridine-3-ylethyl)-urea] | – | yes | – | – | – | can be antagonized | 0.1 | – | 0.1 | 0.3 | 0.8 | 2.5 | 1.6 | Day on which cell death occurred ([1]; concentrations of at least 0.3 μM, high density HepG2 culture): 4 days; inhibition at 1 µM ([3]; Homo sapiens, 1 μM, read-out: Cellular NAD synthesis inhibition [%]): 99% |
| COc1cccc2c1C(=O)c1c(O)c3c(c(O)c1C2=O)C[C@@](O)(C(=O)CO)C[C@@H]3O[C@H]1C[C@H](N)[C@H](O)[C@H](C)O1 [Doxorubicin, reference compound] | – | no | – | – | – | no measurable influence | 0.02 | – | – | – | – | – | – | inhibition at 3 µM ([3]; Homo sapiens, 3 μM, read-out: Cellular NAD synthesis inhibition [%]): 0%; activity at 3 µM ([3]; Homo sapiens, Table 3b, 0.3×10^-5 M, read-out: NAD(P) % of Control): 102% |
| NC(=O)c1c[se]c([C@@H]2O[C@H](CO)[C@@H](O)[C@H]2O)n1 [Selenazofurin, reference compound] | Tox. 30 μM | no | 70.2 | 372.29 | 372.29 | no measurable influence | – | – | – | – | – | – | – | IC50 ([2]; Hep G2, six days of compound incubation, SRB): 0.7 µM; Cellular NAD synthesis inhibition [%] ([3]; 10 μM): 30 (10 μM) % |
| NC(=O)c1csc([C@@H]2O[C@H](CO)[C@@H](O)[C@H]2O)n1 [Tiazofurin, reference compound] | Tox. 300 μM | no | 78.1 | 292.30 | 414.47 | no measurable influence | – | – | – | – | – | – | – | IC50 ([2]; Homo sapiens, HepG2, 144 h): 10 µM; inhibition at 100 µM ([3]; Homo sapiens, 100 μM, read-out: Cellular NAD synthesis inhibition [%]): 22% |
